Measurements: paper doi:10.1101/466938v1, “The distinct biochemical property enables thymidylate kinase as a drug target and participates in pyrimidine drug sensitivity in Candida albicans” (biorxiv, 2018)
In brackets after ≈: the same amount, converted by molar mass. Like-named read-outs stand apart in the source and are kept apart here.

Columns and labels:
Test in all cases: microbe, parasite or virus in culture
Set-up in all cases: species or system Candida albicans strains; Sensititre YeastOne SYO-09 colorimetric microdilution, visual MIC at >=50% growth inhibition
[1] = test system: T1, Candida albicans F2016f024; details: F2016F024, 24 h
T1 construct: F2016f024
Protocol: (§1) Minimum inhibitory concentrations (MICs) of 5-FUrd were determined by broth microdilution method in accordance with the guidelines in Clinical and Laboratory Standards Institute (CLSI) document M27[25], using RPMI 1640 medium containing 0.165 M MOPs (pH 7.0) and 0.2% glucose, an inoculum of 10^3 cells/well, and incubated for 24 hr at 35°C, followed by OD600 reading by TECAN SPARK plate reader. The MIC50 of 5-FUrd was determined as the lowest dosage of 5-FUrd causing 50% inhibition of the growth by using the concentrations in the range of 0.004-2μg/mL. MICs of […] of human use (5-FC; four azoles: posaconazole, voriconazole, itraconazole, fluconazole; and three echinocandins: anidulafungin, caspofungin and micafungin) were determined by the microdilution colorimetric Sensititre YeastOne SYO-09 panel (TREK Diagnostic Systems, Cleveland, OH, USA); in accordance with the manufacturer’s instructions. MICs values were determined visually, after 24 hours of incubation, as the lowest concentration of drug that caused complete inhibition (amphotericin B) or a significant diminution (≥50% inhibition; flucytosine, azoles and echinocandins) of growth relative to that of the growth control. Table 2. Minimum inhibitory concentrations of 5-FUrd and antifungal drugs of clinical used for pathogenic and drug-resistant isolates of Candida albicans^a

[2] = test system: T2, Candida albicans ATCC90028; details: ATCC90028, 24 h
T2 construct: ATCC 90028
Protocol: as §1

[3] = test system: T3, Candida albicans F2016g048; details: F2016G048, 24 h
T3 construct: F2016g048
Protocol: as §1

[4] = test system: T4, Candida albicans SC5314; details: SC5314, 24 h
T4 construct: SC5314
Protocol: as §1

[5] = test system: T5, Candida albicans F2015b076; details: F2015B076, 24 h
T5 construct: F2015b076
Protocol: as §1

[6] = test system: T6, Candida albicans F2016c087; details: F2016C087, 24 h
T6 construct: F2016c087
Protocol: as §1

[7] = test system: T7, Candida albicans F2016e085; details: F2016E085, 24 h
T7 construct: F2016e085
Protocol: as §1

[8] = test system: T8, Candida albicans F2017g023; details: F2017G023, 24 h
T8 construct: F2017g023
Protocol: as §1

[9] = test system: T9, Candida albicans F2014f090; details: F2014F090, 24 h
T9 construct: F2014f090
Protocol: as §1

[10] = test system: T10, Candida albicans F2016a067; details: F2016A067, 24 h
T10 construct: F2016a067
Protocol: as §1

[11] = test system: T11, Candida albicans F2014a093; details: F2014A093, 24 h
T11 construct: F2014a093
Protocol: as §1

[12] = test system: T12, Candida albicans F2015f019; details: F2015F019, 24 h
T12 construct: F2015f019
Protocol: as §1

[13] = read-out: Fluconazole MIC (µg/mL)
[14] = read-out: Itraconazole MIC (µg/mL)
[15] = read-out: Posaconazole MIC (µg/mL)
[16] = read-out: Voriconazole MIC (µg/mL)

Nc1[nH]c(=O)ncc1F [5-FC, 5-flucytosine]
MIC ([1]; read-out: 5-FC MIC (µg/mL)): 0.03 µg/mL (≈ 0.232 µM)
MIC ([2]; read-out: 5-FC MIC (µg/mL)): 0.5 µg/mL (≈ 3.87 µM)
MIC ([3]; read-out: 5-FC MIC (µg/mL)): 0.03 µg/mL (≈ 0.232 µM)
MIC ([4]; read-out: 5-FC MIC (µg/mL)): 0.06 µg/mL (≈ 0.465 µM)
MIC ([5]; read-out: 5-FC MIC (µg/mL)): 0.03 µg/mL (≈ 0.232 µM)
MIC ([6]; read-out: 5-FC MIC (µg/mL)): > 64 µg/mL
MIC ([7]; read-out: 5-FC MIC (µg/mL)): 8 µg/mL (≈ 62 µM)
MIC ([8]; read-out: 5-FC MIC (µg/mL)): > 64 µg/mL
MIC ([9]; read-out: 5-FC MIC (µg/mL)): 0.12 µg/mL (≈ 0.93 µM)
MIC ([10]; read-out: 5-FC MIC (µg/mL)): 0.03 µg/mL (≈ 0.232 µM)
MIC ([11]; read-out: 5-FC MIC (µg/mL)): 0.03 µg/mL (≈ 0.232 µM)
MIC ([12]; read-out: 5-FC MIC (µg/mL)): 0.03 µg/mL (≈ 0.232 µM)

OC(Cn1cncn1)(Cn1cncn1)c1ccc(F)cc1F [Fluconazole, fluconazole]
MIC [1, 13]: 8 µg/mL (≈ 26.1 µM)
MIC [2, 13]: 1 µg/mL (≈ 3.27 µM)
MIC [3, 13]: 256 µg/mL (≈ 836 µM)
MIC [4, 13]: 0.5 µg/mL (≈ 1.63 µM)
MIC [5, 13]: 256 µg/mL (≈ 836 µM)
MIC [6, 13]: 0.5 µg/mL (≈ 1.63 µM)
MIC [7, 13]: 0.06 µg/mL (≈ 0.196 µM)
MIC [8, 13]: 0.5 µg/mL (≈ 1.63 µM)
MIC [9, 13]: 2 µg/mL (≈ 6.53 µM)
MIC [10, 13]: 64 µg/mL (≈ 209 µM)
MIC [11, 13]: > 256 µg/mL
MIC [12, 13]: 4 µg/mL (≈ 13.1 µM)

CCC(C)n1ncn(-c2ccc(N3CCN(c4ccc(OC[C@H]5CO[C@](Cn6cncn6)(c6ccc(Cl)cc6Cl)O5)cc4)CC3)cc2)c1=O (mixture of isomers) [Itraconazole, itraconazole]
MIC [1, 14]: 0.12 µg/mL
MIC [2, 14]: 0.06 µg/mL
MIC [3, 14]: 1 µg/mL
MIC [4, 14]: 0.06 µg/mL
MIC [5, 14]: 0.5 µg/mL
MIC [6, 14]: 0.12 µg/mL
MIC [7, 14]: 0.03 µg/mL
MIC [8, 14]: 0.06 µg/mL
MIC [9, 14]: > 16 µg/mL
MIC [10, 14]: > 16 µg/mL
MIC [11, 14]: > 16 µg/mL
MIC [12, 14]: 0.12 µg/mL

CC[C@@H]([C@H](C)O)n1ncn(-c2ccc(N3CCN(c4ccc(OC[C@@H]5CO[C@@](Cn6cncn6)(c6ccc(F)cc6F)C5)cc4)CC3)cc2)c1=O [Posaconazole, posaconazole]
MIC [1, 15]: 0.25 µg/mL (≈ 0.357 µM)
MIC [2, 15]: 0.06 µg/mL (≈ 0.0856 µM)
MIC [3, 15]: 1 µg/mL (≈ 1.43 µM)
MIC [4, 15]: 0.015 µg/mL (≈ 0.0214 µM)
MIC [5, 15]: 1 µg/mL (≈ 1.43 µM)
MIC [6, 15]: 0.06 µg/mL (≈ 0.0856 µM)
MIC [7, 15]: 0.015 µg/mL (≈ 0.0214 µM)
MIC [8, 15]: 0.03 µg/mL (≈ 0.0428 µM)
MIC [9, 15]: > 8 µg/mL
MIC [10, 15]: 0.03 µg/mL (≈ 0.0428 µM)
MIC [11, 15]: > 8 µg/mL
MIC [12, 15]: 0.12 µg/mL (≈ 0.171 µM)

C[C@@H](c1ncncc1F)[C@](O)(Cn1cncn1)c1ccc(F)cc1F [Voriconazole, voriconazole]
MIC [1, 16]: 0.5 µg/mL (≈ 1.43 µM)
MIC [2, 16]: 0.015 µg/mL (≈ 0.0429 µM)
MIC [3, 16]: > 8 µg/mL
MIC [4, 16]: 0.015 µg/mL (≈ 0.0429 µM)
MIC [5, 16]: > 8 µg/mL
MIC [6, 16]: 0.015 µg/mL (≈ 0.0429 µM)
MIC [7, 16]: 0.004 µg/mL (≈ 0.0115 µM)
MIC [8, 16]: 0.004 µg/mL (≈ 0.0115 µM)
MIC [9, 16]: 0.25 µg/mL (≈ 0.716 µM)
MIC [10, 16]: 0.03 µg/mL (≈ 0.0859 µM)
MIC [11, 16]: > 8 µg/mL
MIC [12, 16]: 0.06 µg/mL (≈ 0.172 µM)
